These are literature values, as cited in US9987231B2, “Compositions and methods for delivery of omeprazole plus acetylsalicylic acid” (POZEN INC., priority 2011, dated 2018).

Series [1] concerns Plasma protein.

`COc1ccc2[nH]c([S+]([O-])Cc3ncc(C)c(OC)c3C)nc2c1` (racemic) [Omeprazole]: the Systemic bioavailability result (after repeated dose) was “about 60%”. The “Orally given dose excreted as metabolites in the urine” value (in vivo, po) is listed as “About 80%”. Also, the “Time in which absorption is usually completed” value (small intestine) is 3 to 6 h. The Plasma protein binding result in series [1] is “about 95%”.
